We go through 67 compounds from ChEMBL document CHEMBL1131424 (J Med Chem, 1998).

This test has as its target T1, 5-hydroxytryptamine receptor 1A (Rattus norvegicus, UniProt P19327).
T1 sequence (P19327 whole entry): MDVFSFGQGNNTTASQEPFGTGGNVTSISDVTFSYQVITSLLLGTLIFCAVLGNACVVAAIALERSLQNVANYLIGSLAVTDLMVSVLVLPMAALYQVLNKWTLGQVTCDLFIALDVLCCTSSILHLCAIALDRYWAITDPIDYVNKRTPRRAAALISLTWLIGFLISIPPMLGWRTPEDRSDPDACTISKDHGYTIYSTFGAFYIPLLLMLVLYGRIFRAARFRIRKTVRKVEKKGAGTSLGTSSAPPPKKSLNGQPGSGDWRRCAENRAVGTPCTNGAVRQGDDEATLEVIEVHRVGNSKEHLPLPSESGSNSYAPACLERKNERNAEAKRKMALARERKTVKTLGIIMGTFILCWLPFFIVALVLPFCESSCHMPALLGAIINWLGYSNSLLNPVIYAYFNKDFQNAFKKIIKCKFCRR
The test can be described thus: Binding affinity for rat cortex 5-hydroxytryptamine 1A receptor, by displacement of 0.2 nM [3H]8-OH-DPAT radioligand.
One may read the Ki as the equilibrium dissociation constant of an inhibitor or competing ligand from its target. The low end stands for a stronger hold on the target, the high end for a looser hold on the target. Compound `Cc1cccc(C(=O)N2CCC(CNCc3cccc(-n4cccn4)n3)CC2)c1` gave a Ki of 3.47 nM.

Consider `O=C(c1ccc(Cl)cc1)N1CCC(CNCc2cccc(-n3cccn3)n2)CC1`, for which the Ki was 49 nM.

`O=C(c1ccc(Cl)c(Cl)c1)N1CCC(CNCc2cccc(Cl)n2)CC1` showed a Ki of 4.57 nM.

`N#Cc1cccc(C(=O)N2CCC(CNCc3cccc(-n4cccn4)n3)CC2)c1` showed a Ki of 17.8 nM.

The compound `N#Cc1cccc(CNCC2CCN(C(=O)c3ccc(Cl)c(Cl)c3)CC2)n1` had a Ki of 50.1 nM.

The compound `O=C(c1ccc(Cl)c(Cl)c1)N1CCC(CNCc2cccc(F)n2)CC1` had a Ki of 8.91 nM.

Take `O=C(c1ccccc1)N1CCC(CNCc2cccc(-n3cccn3)n2)CC1`: the inhibition constant Ki is 33.1 nM.

As to `O=C(c1ccc(Cl)c(Cl)c1)N1CCC(CNCc2cccc(-n3ccnc3)n2)CC1`, the Ki is 7.41 nM.

Take `O=C(c1ccc(Cl)c(Cl)c1)N1CCC(CNCc2cccc(N3CCCC3)n2)CC1`: the affinity, expressed as Ki, was 1.58 nM.

`COc1cccc(CNCC2CCN(C(=O)c3ccc(Cl)c(Cl)c3)CC2)n1` showed a Ki of 3.47 nM.

Consider `CC(C)c1cccc(CNCC2CCN(C(=O)c3ccc(Cl)c(Cl)c3)CC2)n1`, for which the Ki was 0.631 nM.

With `Cc1cccc(CNCC2CCN(C(=O)c3ccc(Cl)c(Cl)c3)CC2)n1`, the affinity, expressed as Ki, was 4.07 nM.

The compound `O=C(c1ccc(Cl)c(Cl)c1)N1CCC(CNCc2cc(-n3cccn3)ccn2)CC1` had a Ki of 646 nM.

Consider `O=C(c1ccc(Cl)c(Cl)c1)N1CCC(CNCCc2cccc(-n3cccn3)n2)CC1`, for which affinity was put at a Ki of 3.55 nM.

As to `CCOc1cccc(C(=O)N2CCC(CNCc3cccc(-n4cccn4)n3)CC2)c1`, affinity was put at a Ki of 10.7 nM.

In turn, `O=C(c1ccccc1Cl)N1CCC(CNCc2cccc(-n3cccn3)n2)CC1` had a Ki of 132 nM.

With `O=S(=O)(c1ccc(Cl)c(Cl)c1)N1CCC(CNCc2cccc(-n3cccn3)n2)CC1`, the affinity corresponds to a Ki of 200 nM.

The compound `Clc1ccc(CN2CCC(CNCc3cccc(-n4cccn4)n3)CC2)cc1Cl` gave a Ki of 17.8 nM.

For `O=C(c1ccc(F)c(Cl)c1)N1CCC(CNCc2cccc(-n3cccn3)n2)CC1`, the Ki was 1.55 nM.

On to `NC(=O)c1cccc(CNCC2CCN(C(=O)c3ccc(Cl)c(Cl)c3)CC2)n1`, for which the Ki is 46.8 nM.

As for `O=C(c1ccc(Cl)c(Cl)c1)N1CCC(CNCCc2ccncc2)CC1`, the Ki was over 1000 nM.

On to `O=C(NCC#CCNCc1cccc(-n2cccn2)n1)c1ccc(Cl)c(Cl)c1`, for which the Ki was 245 nM.

`CN(CCCCNCc1cccc(-n2cccn2)n1)C(=O)c1ccccc1` had a Ki of 170 nM.

Consider `Cn1c(=O)cnn(CCCCNCc2cccc(-n3cccn3)n2)c1=O`, for which the Ki was 110 nM.

`CCCN(C)c1cccc(CNCC2CCN(C(=O)c3ccc(Cl)c(Cl)c3)CC2)n1` showed a Ki of 11.7 nM.

`CCCN(CCC)Cc1cccc(-n2cccn2)n1` gave a Ki of over 10000 nM.

On to `CCCCOc1cccc(CNCC2CCN(C(=O)c3ccc(Cl)c(Cl)c3)CC2)n1`, for which the affinity corresponds to a Ki of 18.6 nM.

Regarding `O=C(C1CCCCC1)N1CCC(CNCc2cccc(-n3cccn3)n2)CC1`, the affinity corresponds to a Ki of 29.5 nM.

The compound `COc1ccc2[nH]cc(CCNCc3cccc(-n4cccn4)n3)c2c1` gave a Ki of 661 nM.

Compound `O=C(c1ccc(Cl)c(Cl)c1)N1CCC(CNCc2cccc(-n3cccc3)n2)CC1` showed a Ki of 4.27 nM.

`O=C(c1cccc(Cl)c1)N1CCC(CNCc2cccc(-n3cccn3)n2)CC1` showed a Ki of 2.29 nM.

As for `CN(C)c1cccc(CNCC2CCN(C(=O)c3ccc(Cl)c(Cl)c3)CC2)c1`, the Ki is 75.9 nM.

The compound `COC(=O)c1ccc(C(=O)N2CCC(CNCc3cccc(-n4cccn4)n3)CC2)cc1Cl` had a Ki of 166 nM.

With `O=C(c1ccc(Cl)c(Cl)c1)N1CCC(CNCc2cccc(F)c2)CC1`, the Ki is 14.8 nM.

Turning to `O=C(c1ccc(Cl)c(Cl)c1)N1CCC(CNCc2cccc(-n3cccc3)c2)CC1`, the affinity corresponds to a Ki of 295 nM.

For the compound `Cc1cccc(C(=O)NCCCCNCc2cccc(-n3cccn3)n2)c1`, affinity was put at a Ki of 14.1 nM.

In turn, `O=C(c1cccc(C(F)(F)F)c1)N1CCC(CNCc2cccc(-n3cccn3)n2)CC1` had a Ki of 3.55 nM.

Regarding `O=C(c1ccc(Cl)c(Cl)c1)N1CCC(CNCc2cccc(-c3ncc[nH]3)n2)CC1`, affinity was put at a Ki of 2.69 nM.

`O=C(c1ccc(Cl)c(Cl)c1)N1CCC(CNCc2cccc(-n3cccn3)n2)CC1`: the Ki was 1.66 nM.

The compound `O=C(c1ccc(Cl)c(Cl)c1)N1CCC(CNCc2cccc(-c3cnco3)n2)CC1` gave a Ki of 0.933 nM.

For the compound `O=C(c1ccc(Cl)c(Cl)c1)N1CCC(CNCc2cccc(N3CCC3)n2)CC1`, the Ki is 0.372 nM.

In the case of `O=C(c1cc(Cl)cc(Cl)c1)N1CCC(CNCc2cccc(-n3cccn3)n2)CC1`, affinity was put at a Ki of 26.3 nM.

With `O=C(c1ccc(Cl)c(Cl)c1)N1CCC(CNCCc2cccc(F)n2)CC1`, the affinity, expressed as Ki, was 3.16 nM.

In turn, `O=C(c1ccc(Cl)c(Cl)c1)N1CCC(CNCCCc2ccccn2)CC1` showed a Ki of 42.7 nM.

The compound `O=C(N1CCC(CNCc2cccc(-n3cccn3)n2)CC1)C12C[C@H]3C[C@@H](C1)C[C@@H](C2)C3` gave a Ki of 13.2 nM.

`O=C(c1ccc(Cl)c(Cl)c1)N1CCC(CNCCc2ccccn2)CC1`: affinity was put at a Ki of 1.2 nM.

`O=C(NCCNCc1cccc(-n2cccn2)n1)C12C[C@H]3C[C@@H](C1)C[C@@H](C2)C3` gave a Ki of 27.5 nM.

`COc1ccc(C(=O)N2CCC(CNCc3cccc(-n4cccn4)n3)CC2)cc1Cl` showed a Ki of 9.12 nM.

For the compound `O=C(c1ccc(Cl)c(Cl)c1)N1CCC(CNCc2cc(Cl)ccn2)CC1`, affinity was put at a Ki of 9.12 nM.

With `Cc1ccc(C(=O)N2CCC(CNCc3cccc(-n4cccn4)n3)CC2)cc1Cl`, the Ki was 1.41 nM.

Regarding `O=C(c1ccc(Cl)c(Cl)c1)N1CCC(CNCc2cccc(-c3ccccc3)n2)CC1`, the affinity corresponds to a Ki of 7.41 nM.

On to `O=C(c1ccc(Cl)c(Cl)c1)N1CCCC(CNCc2cccc(-n3cccn3)n2)C1` (configuration not stated), for which the Ki was 407 nM.

The compound `O=C(c1cccc(F)c1)N1CCC(CNCc2cccc(-n3cccn3)n2)CC1` gave a Ki of 13.5 nM.

Compound `CSc1cccc(CNCC2CCN(C(=O)c3ccc(Cl)c(Cl)c3)CC2)n1` showed a Ki of 2.57 nM.

In turn, `C[S+]([O-])c1cccc(CNCC2CCN(C(=O)c3ccc(Cl)c(Cl)c3)CC2)n1` (configuration not stated) gave a Ki of 46.8 nM.

Turning to `O=C(c1ccc(Cl)c(Cl)c1)N1CCC(CNCc2cccc(-c3ccc[nH]3)n2)CC1`, the Ki was 6.03 nM.

Turning to `O=C(c1ccc(Cl)c(Cl)c1)N1CCC(CNCc2cccc(-c3ccco3)n2)CC1`, the Ki was 0.724 nM.

The compound `Fc1ccc(C(CCCNCc2cccc(-n3cccn3)n2)c2ccc(F)cc2)cc1` showed a Ki of 151 nM.

Consider `O=C(c1cccc(Cl)c1Cl)N1CCC(CNCc2cccc(-n3cccn3)n2)CC1`, for which the Ki was 100 nM.

Regarding `O=C(c1ccc(Cl)c(Cl)c1)N1CCC(CNCc2cccc(-c3cccs3)n2)CC1`, affinity was put at a Ki of 1.38 nM.

Regarding `CN(C)c1cccc(CNCC2CCN(C(=O)c3ccc(Cl)c(Cl)c3)CC2)n1`, the affinity, expressed as Ki, was 1.41 nM.

In the case of `O=C(c1ccc(Cl)c(Cl)c1)N1CCC(CNCCc2cccnc2)CC1`, the Ki was 933 nM.

Take `O=C(c1ccc(Cl)c(Cl)c1)N1CCC(CNCc2cccnc2)CC1`: the Ki was 417 nM.

In the case of `CNc1cccc(CNCC2CCN(C(=O)c3ccc(Cl)c(Cl)c3)CC2)n1`, the Ki is 1.74 nM.

For the compound `O=C(c1ccc(Cl)c(Cl)c1)N1CCC(CNCc2cccc(-c3cc[nH]n3)n2)CC1`, the Ki was 0.537 nM.

The compound `O=C(c1ccc(Cl)c(Cl)c1)N1CCC(CNCc2cccc(-c3nccs3)n2)CC1` showed a Ki of 0.347 nM.

The compound `O=C(c1ccc(Cl)c(Cl)c1)N1CCC(CNCc2ccccn2)CC1` showed a Ki of 26.3 nM.
